Test results published in US20080262049A1, “Therapeutic Agent for Hematopoietic Tumor” (KYOWA HAKKO KOGYO CO., LTD., priority 2005, published 2008).

Tests used:
[1] = molecular target: T1, recombinant human Eg5 motor domain protein (Homo sapiens, UniProt P52732); experiment: Eg5 enzyme inhibition test (ATPase activity); type: biochemical; conditions: for inhibition of the ATPase activity of Eg5 (in words): 30° C., 30 minutes, absorbance at 360 nm; for Eg5 inhibitory activity compared with the corresponding racemic mixture (in words): versus Compounds 3, 4, 6, 7, 20, 14, 9, 8, the respectively corresponding racemic mixtures
T1 construct: A plasmid expressing the motor domain of human Eg5 was constructed; made in house; host or cells: Escherichia coli BL21 (DE3)
T1 sequence (P52732 18-359 limits assumed): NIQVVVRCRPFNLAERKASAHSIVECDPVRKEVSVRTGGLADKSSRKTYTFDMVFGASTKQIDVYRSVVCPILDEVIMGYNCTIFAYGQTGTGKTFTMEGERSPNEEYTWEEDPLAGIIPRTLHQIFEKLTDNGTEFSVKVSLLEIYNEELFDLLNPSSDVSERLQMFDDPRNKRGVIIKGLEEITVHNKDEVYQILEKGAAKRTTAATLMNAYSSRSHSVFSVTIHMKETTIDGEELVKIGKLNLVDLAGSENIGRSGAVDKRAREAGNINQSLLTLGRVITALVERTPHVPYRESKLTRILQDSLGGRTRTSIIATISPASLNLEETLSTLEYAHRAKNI
Procedure: A recombinant human Eg5 motor domain protein was prepared by referring to the literature [Biochemistry, Vol. 35, p. […] A plasmid expressing the motor domain of human Eg5 was constructed, and transformed into Eseherichia coli BL21 (DE3). The transformant was cultured at 25° C., and when the OD600 reached 0.74, isopropyl-β-D-thiogalactoside was added at a final concentration of 0.5 mmol/L. The transformant was further cultured for 4 hours, and then the culture medium was centrifuged to collect the cells. The cells were suspended in a buffer and ultrasonicated, and then the sonicated solution was centrifuged to recover the supernatant. The supernatant was purified by cation exchange column chromatography to obtain a partially purified sample. Furthermore, the partially purified sample was purified by gel filtration column chromatography to obtain a finally purified sample.
Measurement of the ATPase activity of Eg5 was carried out by referring to the literatures [EMBO Journal, Vol. 13, p. […] Solution A was dispensed into each well of a 96-well plate as 45 μL portions. Solution B was used to serially dilute a test compound. The diluted test compound solutions in a volume of 30 μL were mixed with Solution A added beforehand in each well of the 96-well plate to start the enzymatic reaction. The enzymatic reaction was performed at 30° C. for 30 minutes. […] The relative activity was calculated to calculate IC50 value.

[2] = test system: human multiple myeloma NCI-H929 cells; experiment: Cell growth inhibition test against hematopoietic tumor cell lines (XTT), NCI-H929; type: cell-based; conditions: 72 hours culture with compound, read-out: growth inhibitory activity, GI50 value
Excerpt: (§1) As hematopoietic tumor cell lines, human acute lymphoblastic leukemia RS4;11 cells (ATCC No. CRL-1873), human chronic myeloid leukemia K-562 cells (ATCC No. CCL-243), and human multiple myeloma NCI-H929 cells (ATCC No. CRL-9068) were used. For the culture of the cells, RPMI 1640 Medium (Invitrogen, catalog No. 11875-093) containing 10% fetal bovine serum (Invitrogen, catalog No. 10099-141), 10 mmol/L 4-(2-hydroxyethyl)-1-piperazinethanesulfonic acid (HEPES) buffer (ICN Biomedicals, catalog No. 1688449), 1 mmol/L sodium pyruvate (Invitrogen, catalog No. 11360-070), 4.5 g/L glucose (Sigma-Aldrich, catalog No. G8769), 100 units/mL penicillin (Invitrogen, catalog No. 15140-122) and 100 μg/mL streptomycin (Invitrogen, catalog No. 15140-122) was used. The cells were cultured at 37° C. in a 5% carbon dioxide atmosphere.
(§2) RS4;11 cells (20000 cells/well), K-562 cells (1000 cells/well), or NCI-H929 cells (15000 cells/well) were seeded in each well of 96-well plates (Nunc, catalog No. 167008), and cultured overnight. Test compounds diluted stepwise were added, and the cells were further cultured for 72 hours (final volume: 100 μL/well). Fifty μL XTT labeling mixture of Cell Proliferation Kit II (XTT) (Roche Diagnostics, catalog No. 1465015) was added to each well, and the plates were incubated at 37° C. After 4 hours, absorbance at 490 nm (reference wavelength: 655 nm) was measured with a plate reader (Molecular Device, SpectraMax 340PC^384). Growth ratios of the cells in the wells treated with the test compound was calculated based on the growth ratio of the cells in the control well treated with solvent (dimethyl sulfoxide (DMSO)) for 72 hours, which was defined as 100%.

[3] = test system: human chronic myeloid leukemia K-562 cells; experiment: Cell growth inhibition test against hematopoietic tumor cell lines (XTT), K-562; type: cell-based; conditions: K562, 72 hours culture with compound, read-out: growth inhibitory activity, GI50 value
Excerpt: as §1, §2

[4] = test system: human non-Hodgkin's lymphoma SR cells; experiment: Cell growth inhibition test on non-Hodgkin's lymphoma cells (XTT), SR; type: cell-based; conditions: same manner as Test Example 1, read-out: growth inhibitory activity, GI50 value
Procedure: as §2
(§3) As cancer cell lines, human acute myeloid leukemia MV-4-11 cells (ATCC No. CRL-9591) and human non-Hodgkin's lymphoma SR cells (ATCC No. CRL-2262) were used. The cells were cultured at 37° C. in a 5% carbon dioxide atmosphere by using the mediums mentioned below, respectively.
(§4) In the same manner as that of Test Example 1, the cells were seeded (8000 to 16000 cells/well, respectively) in each well of 96-well plates (Nunc, catalog No. 167008), and growth ratios of the cells treated with test compounds were calculated. Measurement of absorbance was performed at 3 to 4 hours after the addition of the XTT labeling mixture.

[5] = test system: human acute myeloid leukemia MV-4-11 cells; experiment: Cell growth inhibition test on acute myeloid leukemia cells (XTT), MV-4-11; type: cell-based; conditions: MV4-11, same manner as Test Example 1, read-out: growth inhibitory activity, GI50 value
Procedure: as §2, §3, §4

[6] = test system: human acute lymphoblastic leukemia RS4;11 cells; experiment: Cell growth inhibition test against hematopoietic tumor cell lines (XTT), RS4;11; type: cell-based; conditions: 72 hours culture with compound, read-out: growth inhibitory activity, GI50 value
Excerpt: as §1, §2

Row | SMILES | inhibition of the ATPase activity of Eg5 (in words) [1] | GI50 [2] [µM] | GI50 [3] [µM] | GI50 [4] [µM] | GI50 [5] [µM] | Eg5 inhibitory activity compared with the corresponding racemic mixture (in words) [1] | GI50 [6] [µM]
1 | CC(=O)N1N=C(N2CCCCC2=O)SC1(CCNS(C)(=O)=O)c1ccccc1 (racemic) [Compound 20, N-{2-[3-Acetyl-5-(2-oxopiperidino)-2-phenyl-2,3-dihydro-1,3,4-thiadiazol-2-yl]ethyl}methanesulfonamide] | inhibited the ATPase activity of Eg5 in a concentration-dependent manner | – | – | – | – | – | –
2 | CC(C)(C)C(=O)NC1=NN(C(=O)C(C)(C)C)C(CCCC(=O)NCCO)(c2ccccc2)S1 (single isomer, unassigned) [Compound o, 4-[3-(2,2-Dimethylpropionyl)-5-(2,2-dimethylpropionylamino)-2-phenyl-2,3-dihydro-1,3,4-thiadiazol-2-yl]-N-(2-hydroxyethyl)butanamide] | inhibited the ATPase activity of Eg5 in a concentration-dependent manner | < 10 | < 10 | < 10 | < 10 | stronger inhibitory activities | < 10
3 | CC(C)C(=O)N1N=C(NC(=O)C(C)(C)C)SC1(CCNS(C)(=O)=O)c1ccccc1 (single isomer, unassigned; (-)) [Compound d, (−)-N-[4-Isobutyryl-5-(2-methanesulfonylaminoethyl)-5-phenyl-4,5-dihydro-1,3,4-thiadiazol-2-yl]-2,2-dimethylpropanamide] | inhibited the ATPase activity of Eg5 in a concentration-dependent manner | < 10 | < 10 | < 10 | < 10 | stronger inhibitory activities | < 10
4 | CCNCCS(=O)(=O)NCCC1(c2ccccc2)SC(NC(=O)C(C)(C)C)=NN1C(=O)C(C)(C)C (racemic) [Compound 14, N-{4-(2,2-Dimethylpropionyl)-5-[2-(2-ethylaminoethanesulfonylamino)-ethyl]-5-phenyl-4,5-dihydro-1,3,4-thiadiazol-2-yl}-2,2-dimethylpropanamide] | inhibited the ATPase activity of Eg5 in a concentration-dependent manner | – | – | – | – | – | –
5 | CC(C)(C)C(=O)NC1=NN(C(=O)C(C)(C)C)C(CCNS(C)(=O)=O)(c2ccccc2)S1 (single isomer, unassigned; (-)) [Compound a, (−)-N-[4-(2,2-Dimethylpropionyl)-5-(2-methanesulfonylaminoethyl)-5-phenyl-4,5-dihydro-1,3,4-thiadiazol-2-yl]-2,2-dimethylpropanamide] | inhibited the ATPase activity of Eg5 in a concentration-dependent manner | < 10 | < 10 | < 10 | < 10 | stronger inhibitory activities | < 10
6 | CC(C)(C)C(=O)NC1=NN(C(=O)C(C)(C)C)C(CN)(c2ccccc2)S1 (stereo not drawn) [Compound j, N-[5-Aminomethyl-4-(2,2-dimethylpropionyl)-5-phenyl-4,5-dihydro-1,3,4-thiadiazol-2-yl]-2,2-dimethylpropanamide] | – | < 10 | < 10 | – | – | – | < 10
7 | CCC(=O)N1N=C(NC(=O)C(C)(C)C)SC1(CCNS(C)(=O)=O)c1ccccc1 (single isomer, unassigned; (-)) [Compound b, (−)-N-[5-(2-Methanesulfonylaminoethyl)-5-phenyl-4-propionyl-4,5-dihydro-1,3,4-thiadiazol-2-yl]-2,2-dimethylpropanamide] | inhibited the ATPase activity of Eg5 in a concentration-dependent manner | < 10 | < 10 | < 10 | < 10 | stronger inhibitory activities | < 10
